Tests used:
Type in all cases: cell-based, human
[1] = tested on: ESCC tumor cells (No. 0F0064); assay: Effects of different factors added to basic medium BM on proliferation of primary ESCC cells (cell count); details: factor added to BM at concentrations of Table 3; 12 days of culture; FIGS. 1A-1E
Method: (§1) Extracellular matrix gel (Matrigel®) (manufactured by BD Biosciences) was diluted at 1:100 in serum-free DMEM/F12 medium to prepare an extracellular matrix dilution, which was added to a 48-well culture plate with 500 μl/well to completely cover the bottom of the wells of the culture plate. The resultant was let stand for 1 hour in a 37° C. incubator. After 1 hour, the extracellular matrix dilution was removed to provide a Matrigel-coated plate.
Preparation of basic medium (abbreviated as BM): BM was prepared by adding 0.2 vol. % of Primocin (purchased from Invivogen, with a concentration of 50 mg/mL) to the commercial DMEM/F-12 medium to provide a final concentration of 100 μg/mL.
Next, different kinds and concentrations of additive factors (Table 3) were added to the basic medium (BM), so as to prepare culture mediums for ESCC epithelial cells containing different additive components.
The culture mediums with different components were added at a volume of 500 μl/well to 48-well plates which were coated with extracellular matrix gel (Matrigel). ESCC tumor cells (No. 0F0064) isolated from ESCC tissue according to the same method described in Example 1 were inoculated in a Matrigel-coated 48-well culture plate at a cell density of 2×10^4 cells/cm^2. After surface disinfection, the plate was placed in a 37° C., 5% CO2 incubator (purchased from Thermo Fisher), such that equal numbers of freshly isolated ESCC tumor cells (No. 0F0064) were cultured under different medium formulations. The culture mediums were renewed every 4 days after the start of the culture. After 12 days of culture, cell counts were performed. As an experiment control, the basis medium (BM) without any additive was used. The ordinate in each figure represents the ratio of the number of cells obtained after culture in different mediums to the number of cells obtained after culture in basic medium BM. As shown in the figures, the addition of different concentrations of different factors as shown in Table 3 to BM has different effects on cell proliferation.

[2] = tested on: primary ESCC tumor cells (No. 0F0061); assay: Effects of removing single factor or combination of factors from FEM on continuous expansion of primary ESCC cells; details: continuous culture, third passage; FIG. 12 and FIG. 13
Method: The culture medium for primary ESCC epithelial cell FEM was prepared in the same method of Example 2. As a control, a basic medium (hereinafter also referred to as “BM”) was prepared using the same method of Example 2. In addition, six other different culture mediums were prepared according to Table 9.
ESCC tissue-originated primary ESCC tumor cells (No. 0F0061) were obtained by using the same method as in Example 1. Then, the primary ESCC tumor cells were inoculated in a Matrigel® (manufactured by BD Biosciences)-coated 24-well plate at a density of 4×10^4 cells/cm^2. 1 mL of the culture medium for primary ESCC epithelial cells (FEM) of the invention was used, which was then placed in a 37° C., 5% CO2 incubator (purchased from Thermo Fisher) for culture.
When the cells in the culture plate grew to cover about 80% of the bottom area, the medium supernatant in the 24-well plate was discarded and 400 μL 0.05% trypsin (purchased from Gibco) was added for cell digestion; the cells were incubated at 37° C. for 10 minutes until the cells were completely digested as observed under the microscope (EVOS M500, Invitrogen); then the digestion was terminated by using 800 μL of DMEM/F12 culture solution containing 5% (v/v) fetal bovine serum, 100 U/mL penicillin, and 100 μg/mL penicillin; the resultant was collected into a 15 mL centrifuge tube and centrifuged at 1500 rpm for 4 minutes, and then the supernatant was discarded. The centrifuged cell sediments were resuspended in the culture medium of the invention and were counted with a flow imaging counter (JIMBIO FIL, Jiangsu Jimbio Technology Co., Ltd.) to obtain the total number of cells. The cells were incubated into another 24-well culture plate coated with extracellular matrix gel at a density of 2×10^4 cells/cm^2 for further culture. The cells were inoculated into the 24-well culture plate coated with extracellular matrix gel at the same density using other seven different mediums for culture.
When the passaged cells grew in the culture plate to cover about 80% of the bottom area of the plate again, the cultured cells were digested, collected and counted according to the above operating method. The cells were inoculated at a density of 2×10^4 cells/cm^2 again and cultured continuously using the respective culture mediums of different compositions.
The following is the formula for calculating the cell population doubling number of primary ESCC epithelial cells under different culture conditions:
Population Doubling (PD)=3.32*log10 (total number of digested cells/the number of cells at initial inoculation), see Chapman et al., Stem Cell Research & Therapy 2014, 5: 60. […]

[3] = tested on: ESCC tumor cells (Sample No. 0F0065); assay: Effects of different concentrations of the additive factors in FEM on proliferation of primary ESCC cells; details: factor added back to FEM lacking it; first passage; FIGS. 3A-3H; preferably
Method: as §1, with “plate with 200 μl/well to” for “plate with 500 μl/well to”, “Matrigel-coated plate. […]” for “Matrigel-coated plate.”
ESCC epithelial cells originated from cancer tissue were isolated and obtained from the cancer tissue of an ESCC patient (Sample No. 0F0065) using the same method as in Example 1. Next, ESCC tumor cells originated from cancer tissue were counted with a flow imaging counter (JIMBIO FIL, Jiangsu Jimbio Technology Co., Ltd.) to obtain the total number of cells. […] The centrifuged cell sediments were resuspended in the basic medium BM and were counted with a flow imaging counter (JIMBIO FIL, Jiangsu Jimbio Technology Co., Ltd.) to obtain the total number of cells. […]

Molecule: CN1C(=O)C(c2c(F)cccc2F)N(C)c2nc(Nc3ccc(S(N)(=O)=O)cc3)ncc21 (stereo not shown) [Compound 1, 4-((7-(2,6-difluorophenyl)-5,8-dimethyl-6-oxo-5,6,7,8-tetrahydropteridin-2-yl)amino)benzsulfamide]
- effect on cell proliferation (ratio of number of cells to that in basic medium BM) [1]: promoting effects on cell proliferation
- proliferation effect of cells after removal of the component from FEM [2]: significantly attenuated

Molecule: Cc1cccc(-c2nn(C(=S)Nc3ccccc3)cc2-c2ccnc3ccccc23)n1 [Compound A83-01]
- proliferation effect of cells after removal of the component from FEM [2]: significantly attenuated

Molecule: C[C@@H](N)[C@H]1CC[C@H](C(=O)Nc2ccncc2)CC1 [Compound Y27632, reference compound]
- effect on cell proliferation (ratio of number of cells to that in basic medium BM) [1]: promoting effects on cell proliferation
- proliferation effect of cells after removal of the component from FEM [2]: significantly attenuated

Molecule: Oc1ccc(-c2nc(-c3ccncc3)c(-c3ccc(F)cc3)[nH]2)cc1 [SB202190]
- proliferation effect of cells after removal of the component from FEM [2]: significantly attenuated

Molecule: epidermal growth factor: growth factor from Sino Biological (NSDSECPLSHDGYCLHDGVCMYIEALDKYACNCVVGYIGERCQYRDLKWWELR; Epidermal growth factor; UniProt P01133 971-1023, looked up)
- effect on cell proliferation (ratio of number of cells to that in basic medium BM) [1]: promoting effects on cell proliferation

Molecule: hepatocyte growth factor: growth factor from Sino Biological
- effect on cell proliferation (ratio of number of cells to that in basic medium BM) [1]: promoting effects on cell proliferation
- amount in the culture medium, preferable (proliferation ratio to control well) [3]: 2.5 to 20 ng/mL

Molecule: insulin-like growth factor 1: growth factor from Sino Biological
- effect on cell proliferation (ratio of number of cells to that in basic medium BM) [1]: promoting effects on cell proliferation

— patent publication US20230235283A1, “CULTURE MEDIUM FOR ESOPHAGEAL SQUAMOUS CELL CARCINOMA EPITHELIAL CELLS, CULTURE METHOD, AND APPLICATION THEREOF” (PRECEDO PHARMACEUTICALS CO., LTD, priority 2020, published 2023)
